# Laboratory results from ChEMBL document CHEMBL4842358, “Design, synthesis and biological evaluation of sphingosine-1-phosphate receptor 2 antagonists as potent 5-FU-resistance reversal agents for the treatment of colorectal cancer” (Eur J Med Chem, 2021).
# Calls of active or inactive are those of the source. The calls are words filed in the database; no cut-off is given here.
# Tests used:
# [1] = Clearance in Sprague-Dawley rat plasma at 1 mg/kg, iv measured for 24 hrs by LC-MS/MS analysis; type: ADME, organism-based
# [2] = molecular target: T1, Sphingosine 1-phosphate receptor 2 (Homo sapiens, UniProt O95136); assay: Antagonist activity at S1PR2 in human SW620/5-FU cells assessed as reduction of DPD-catalyzed 5-FU degradation by measuring intracellular 5-FU level at 2 uM measured after 6 hrs by HPLC-UV analysis; type: functional, cell-based; conditions: filed as antagonist
# T1 sequence (O95136 whole entry): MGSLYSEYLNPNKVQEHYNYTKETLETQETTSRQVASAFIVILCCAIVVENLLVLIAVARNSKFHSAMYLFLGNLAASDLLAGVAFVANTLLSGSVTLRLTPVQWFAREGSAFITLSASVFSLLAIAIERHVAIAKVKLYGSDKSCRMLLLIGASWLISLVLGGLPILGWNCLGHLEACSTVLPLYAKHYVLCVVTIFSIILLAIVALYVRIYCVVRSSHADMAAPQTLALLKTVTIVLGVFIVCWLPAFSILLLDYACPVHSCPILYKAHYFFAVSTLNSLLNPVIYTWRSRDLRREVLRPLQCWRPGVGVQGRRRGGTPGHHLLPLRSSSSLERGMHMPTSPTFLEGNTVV
# [3] = Ratio of drug level in Sprague-Dawley rat blood to plasma at 1 mg/kg, iv measured for 24 hrs by LC-MS/MS analysis; type: ADME, organism-based; conditions: blood and plasma
# [4] = Volume of distribution in Sprague-Dawley rat blood at 1 mg/kg, iv measured for 24 hrs by LC-MS/MS analysis; type: ADME, organism-based
# [5] = molecular target: T1, Sphingosine 1-phosphate receptor 2; assay: Binding affinity to S1PR2 (unknown origin) assessed as association constant measured for 60 secs by surface plasmon resonance assay; conditions: filed as antagonist, time 60.0 sec
# [6] = molecular target: T1, Sphingosine 1-phosphate receptor 2; assay: Binding affinity to S1PR2 (unknown origin) measured by surface plasmon resonance assay; conditions: filed as antagonist
# SW620/5-FU = assay: Antitumour activity against human SW620/5-FU cells xenografted in athymic nude mouse assessed as inhibition of tumour growth at 1.08 mg/kg/day, iv administered for 24 days; type: functional; conditions: 576 h, time 24 day, read-out: TGI
# [7] = Stability in mouse liver microsomes assessed as parent compound remaining at 2 umol/L measured after 60 mins in presence of NADPH regenerating system by LC-MS/MS analysis; type: ADME, Microsome; conditions: dose 2 µmol/L, read-out: Stabilty
# [8] = AUC (0 to t) in Sprague-Dawley rat plasma at 1 mg/kg, iv measured for 24 hrs by LC-MS/MS analysis; type: ADME, organism-based; parameters: dose 1 mg/kg, time 24 hrs
# [9] = Mean residence time (0 to t) in Sprague-Dawley rat blood at 1 mg/kg, iv measured for 24 hrs by LC-MS/MS analysis; type: ADME, organism-based
# [10] = AUC (0 to infinity) in Sprague-Dawley rat plasma at 1 mg/kg, iv by LC-MS/MS analysis; type: ADME, organism-based; parameters: time infinity, route intravenous, dose 1 mg/kg
# [11] = Toxicity in athymic nude mouse xenografted with human SW620/5-FU cells assessed as changes in body weight at 1.08 mg/kg/day, iv administered for 24 days in presence of 5-FU and measured for every 4 days; type: organism-based; conditions: in vivo, 576 h, time 24 day
# [12] = molecular target: T1, Sphingosine 1-phosphate receptor 2; assay: Antagonist activity at S1PR2 in human SW620/5-FU cells assessed as reduction in dosage of 5-FU at 0.5 to 2.5 uM measured after 6 hrs by HPLC-UV analysis; type: functional, cell-based; conditions: filed as antagonist, dose 0.5-2.5 µM
# Mus musculus [13] = assay: Downregulation of DPD expression in liver of athymic nude mouse xenografted with human SW620/5-FU at 1.08 mg/kg/day, iv administered for 24 days in presence of 5-FU and measured on day 24 by Western blot assay; type: functional, organism-based; conditions: time 24.0 day
# [14] = Half life in Sprague-Dawley rat blood at 1 mg/kg, iv measured for 24 hrs by LC-MS/MS analysis; type: ADME, organism-based
# Mus musculus [15] = assay: Downregulation of DPD expression in liver of athymic nude mouse xenografted with human SW620/5-FU at 1.08 mg/kg/day, iv administered for 24 days in presence of 5-FU and measured on day 24 by immunohistochemistry; type: functional, organism-based; conditions: time 24.0 day
# [16] = molecular target: T1, Sphingosine 1-phosphate receptor 2; assay: Antagonist activity at S1PR2 in human SW620/5-FU cells assessed as reduction of DPD-catalyzed 5-FU degradation by measuring intracellular FBAL level at 2 uM measured after 6 hrs by HPLC-UV analysis; type: functional, cell-based; conditions: filed as antagonist
# [17] = Initial plasma concentration in Sprague-Dawley rat at 1 mg/kg, iv by LC-MS/MS analysis; type: ADME, organism-based
# [18] = Mean residence time (0 to infinity) in Sprague-Dawley rat blood at 1 mg/kg, iv by LC-MS/MS analysis; type: ADME, organism-based
# [19] = Mean residence time (0 to infinity) in Sprague-Dawley rat plasma at 1 mg/kg, iv by LC-MS/MS analysis; type: ADME, organism-based
# [20] = Reversal of 5-FU resistance against human SW620/5-FU cells assessed as inhibition of cell proliferation measured after 72 hrs in presence of 5-FU by MTT assay; type: functional, cell-based
# [21] = molecular target: T1, Sphingosine 1-phosphate receptor 2; assay: Antagonist activity at S1PR2 in human SW620/5-FU cells assessed as downregulation of JMJD3 expression at 0.16 to 2.5 uM measured by western blot assay; type: functional, cell-based; conditions: filed as antagonist, dose 0.16-2.5 µM
# [22] = Stability in rat liver microsomes assessed as parent compound remaining at 2 umol/L measured after 60 mins in presence of NADPH regenerating system by LC-MS/MS analysis; type: ADME, Microsome; conditions: dose 2 µmol/L, read-out: Stabilty
# Mus musculus [23] = assay: Downregulation of DPD expression in colon of athymic nude mouse xenografted with human SW620/5-FU cells at 1.08 mg/kg/day, iv administered for 24 days in presence of 5-FU and measured on day 24 by immunohistochemistry; type: functional, organism-based; conditions: time 24.0 day
# [24] = molecular target: T1, Sphingosine 1-phosphate receptor 2; assay: Antagonist activity at S1PR2 in human HCT-116 cells overexpressing DPD assessed as downregulation of DPD expression by western blot analysis; type: functional, cell-based; conditions: filed as antagonist, dose 0.16-2.5 µM
# [25] = molecular target: T1, Sphingosine 1-phosphate receptor 2; assay: Antagonist activity at S1PR2 in human HCT-116 cells overexpressing DPD assessed as downregulation of JMJD3 expression at 0.16 to 2.5 uM measured by western blot assay; type: functional, cell-based; conditions: filed as antagonist, dose 0.16-2.5 µM
# [26] = Initial drug concentration in Sprague-Dawley rat blood at 1 mg/kg, iv by LC-MS/MS analysis; type: ADME, organism-based
# [27] = Half life in Sprague-Dawley rat plasma at 1 mg/kg, iv measured for 24 hrs by LC-MS/MS analysis; type: ADME, organism-based
# [28] = Toxicity in athymic nude mouse xenografted with human SW620/5-FU cells assessed as histopathological changes in liver at 1.08 mg/kg/day, iv administered for 24 days in presence of 5-FU and measured on day 24 by immunohistochemistry; type: organism-based; conditions: in vivo, 576 h, time 24 day
# [29] = AUC (0 to infinity) in Sprague-Dawley rat blood at 1 mg/kg, iv by LC-MS/MS analysis; type: ADME, organism-based; parameters: route intravenous, time infinity, dose 1 mg/kg
# [30] = Mean residence time (0 to t) in Sprague-Dawley rat plasma at 1 mg/kg, iv measured for 24 hrs by LC-MS/MS analysis; type: ADME, organism-based
# [31] = Downregulation of S1PR2 expression in human HCT-116 cells overexpressing DPD at 0.16 to 2.5 uM cells measured by western blot assay; type: ADME, cell-based; conditions: hct-116, 2.5 µM, dose 0.16-2.5 µM
# Mus musculus [32] = assay: Downregulation of DPD expression in tumour of athymic nude mouse xenografted with human SW620/5-FU at 1.08 mg/kg/day, iv administered for 24 days in presence of 5-FU and measured on day 24 by Western blot assay; type: functional, organism-based; conditions: time 24.0 day
# [33] = Clearance in Sprague-Dawley rat blood at 1 mg/kg, iv measured for 24 hrs by LC-MS/MS analysis; type: ADME, organism-based
# [34] = Volume of distribution in Sprague-Dawley rat plasma at 1 mg/kg, iv measured for 24 hrs by LC-MS/MS analysis; type: ADME, organism-based
# Mus musculus [35] = assay: Downregulation of DPD expression in tumour of athymic nude mouse xenografted with human SW620/5-FU at 1.08 mg/kg/day, iv administered for 24 days in presence of 5-FU and measured on day 24 by immunohistochemistry; type: functional, organism-based; conditions: time 24.0 day
# NCM460 = assay: Cytotoxicity against human NCM460 cells assessed as cell viability measured after 72 hrs in presence of 5-FU by MTT assay; type: cell-based; conditions: NCM460, 72 h
# [36] = Downregulation of human S1PR2 expression in human SW620/5-FU cells at 0.16 to 2.5 uM cells measured by western blot assay; type: ADME, cell-based; conditions: dose 0.16-2.5 µM
# [37] = molecular target: T1, Sphingosine 1-phosphate receptor 2; assay: Binding affinity to S1PR2 (unknown origin) assessed as dissociation constant measured for 60 secs by surface plasmon resonance assay
# [38] = Reversal of 5-FU resistance against human SW620/5-FU cells xenografted in athymic nude mouse assessed as potentiation of 5-FU induced antitumor activity by measuring inhibition of tumor growth at 1.08 mg/kg/day, iv administered for 24 days in presence of 5-FU (reference value: 18.54%); type: functional; conditions: 576 h, time 24 day, read-out: TGI
# [39] = molecular target: T1, Sphingosine 1-phosphate receptor 2; assay: Antagonist activity at S1PR2 in human SW620/5-FU cells assessed as downregulation of DPD expression by western blot analysis; type: functional, cell-based; conditions: filed as antagonist
# [40] = AUC (0 to t) in Sprague-Dawley rat blood at 1 mg/kg, iv measured for 24 hrs by LC-MS/MS analysis; type: ADME, organism-based; parameters: time 24 hrs, dose 1 mg/kg
# HCT-116 = assay: Reversal of 5-FU resistance against human HCT-116 cells overexpressing DPD assessed as inhibition of cell proliferation measured after 72 hrs in presence of 5-FU by MTT assay; type: functional, cell-based; conditions: HCT-116, 72 h
smiles,measurement,setting,value
O=C(Nc1cc(Cl)nc(Cl)c1)Nc1cc(Cl)nc(Cl)c1,clearance,[1],4.17 mL/min/kg
same,Activity,[2],10 mg/L
same,blood plasma ratio at 24 h,[3],0.484
same,Vd,[4],3.3 L/kg
same,Ka,[5],5.28 10^6/M/s
same,K,[6],1.32 10^-8M
same,inhibition in vivo at 1.08 mg/kg/day,SW620/5-FU,7.5%
same,"remaining at 1 h, 2 µM",[7],97.9%
same,AUC(0-t) at 24 h,[8],3840 ng·h/mL
same,MRT last at 24 h,[9],6 h
same,AUC(0-inf),[10],3960 ng·h/mL
same,Activity,[11],Non-Toxic
same,inhibition,[12],Active
same,inhibition,Mus musculus [13],Active
same,half-life,[14],4.4 h
same,inhibition,Mus musculus [15],Active
same,Activity,[16],0.17 mg/L
same,C0,[17],1110 ng/mL
same,MRT inf,[18],6.7 h
same,MRT inf,[19],7 h
same,EC50,[20],210 nM
same,inhibition,[21],Active
same,"remaining at 1 h, 2 µM",[22],95.2%
same,inhibition,Mus musculus [23],Active
same,inhibition,[24],Dose-Dependent Effect
same,inhibition,[25],Active
same,C0,[26],489 ng/mL
same,half-life,[27],4.7 h
same,Activity,[28],Non-Toxic
same,AUC(0-inf),[29],1950 ng·h/mL
same,MRT last at 24 h,[30],6.2 h
same,Activity,[31],Non-Toxic
same,inhibition,Mus musculus [32],Active
same,clearance,[33],8.5 mL/min/kg
same,Vd,[34],1.7 L/kg
same,inhibition,Mus musculus [35],Active
same,EC50,NCM460,9440 nM
same,Activity,[36],Non-Toxic
same,Dissociation rate constant (koff),[37],6.97 10^-1/s
same,inhibition in vivo at 1.08 mg/kg/day,[38],66.2%
same,inhibition,[39],Dose-Dependent Effect
same,AUC(0-t) at 24 h,[40],1890 ng·h/mL
same,EC50,HCT-116,180 nM
